# Patent publication US9376429B2, “Sodium channel blockers, preparation method thereof and use thereof” (Daewoong Pharmaceutical Co., Ltd., priority 2012, dated 2016)
# Target: T1, sodium ion channel (Nav1.7) (Homo sapiens, UniProt Q15858)
# T1 construct: host or cells: HEK293
# Assay: Blocking effect against sodium ion channel (Nav1.7), IonFlux16 auto patch clamp, hNav1.7 HEK293 cells
# Type: cell-based
# Details: peak current after 50 seconds treatment, eight concentrations
# Summary of the method: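 HEK293 cells stably expressing human Nav1.7 were recorded by IonFlux16 automated patch clamp in extracellular solution (pH 7.45, final DMSO ≤0.3%). Peak current was measured after 50 s exposure to each of eight compound concentrations and expressed as percent inhibition relative to pre-compound current.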
# T1 sequence (Q15858 whole entry): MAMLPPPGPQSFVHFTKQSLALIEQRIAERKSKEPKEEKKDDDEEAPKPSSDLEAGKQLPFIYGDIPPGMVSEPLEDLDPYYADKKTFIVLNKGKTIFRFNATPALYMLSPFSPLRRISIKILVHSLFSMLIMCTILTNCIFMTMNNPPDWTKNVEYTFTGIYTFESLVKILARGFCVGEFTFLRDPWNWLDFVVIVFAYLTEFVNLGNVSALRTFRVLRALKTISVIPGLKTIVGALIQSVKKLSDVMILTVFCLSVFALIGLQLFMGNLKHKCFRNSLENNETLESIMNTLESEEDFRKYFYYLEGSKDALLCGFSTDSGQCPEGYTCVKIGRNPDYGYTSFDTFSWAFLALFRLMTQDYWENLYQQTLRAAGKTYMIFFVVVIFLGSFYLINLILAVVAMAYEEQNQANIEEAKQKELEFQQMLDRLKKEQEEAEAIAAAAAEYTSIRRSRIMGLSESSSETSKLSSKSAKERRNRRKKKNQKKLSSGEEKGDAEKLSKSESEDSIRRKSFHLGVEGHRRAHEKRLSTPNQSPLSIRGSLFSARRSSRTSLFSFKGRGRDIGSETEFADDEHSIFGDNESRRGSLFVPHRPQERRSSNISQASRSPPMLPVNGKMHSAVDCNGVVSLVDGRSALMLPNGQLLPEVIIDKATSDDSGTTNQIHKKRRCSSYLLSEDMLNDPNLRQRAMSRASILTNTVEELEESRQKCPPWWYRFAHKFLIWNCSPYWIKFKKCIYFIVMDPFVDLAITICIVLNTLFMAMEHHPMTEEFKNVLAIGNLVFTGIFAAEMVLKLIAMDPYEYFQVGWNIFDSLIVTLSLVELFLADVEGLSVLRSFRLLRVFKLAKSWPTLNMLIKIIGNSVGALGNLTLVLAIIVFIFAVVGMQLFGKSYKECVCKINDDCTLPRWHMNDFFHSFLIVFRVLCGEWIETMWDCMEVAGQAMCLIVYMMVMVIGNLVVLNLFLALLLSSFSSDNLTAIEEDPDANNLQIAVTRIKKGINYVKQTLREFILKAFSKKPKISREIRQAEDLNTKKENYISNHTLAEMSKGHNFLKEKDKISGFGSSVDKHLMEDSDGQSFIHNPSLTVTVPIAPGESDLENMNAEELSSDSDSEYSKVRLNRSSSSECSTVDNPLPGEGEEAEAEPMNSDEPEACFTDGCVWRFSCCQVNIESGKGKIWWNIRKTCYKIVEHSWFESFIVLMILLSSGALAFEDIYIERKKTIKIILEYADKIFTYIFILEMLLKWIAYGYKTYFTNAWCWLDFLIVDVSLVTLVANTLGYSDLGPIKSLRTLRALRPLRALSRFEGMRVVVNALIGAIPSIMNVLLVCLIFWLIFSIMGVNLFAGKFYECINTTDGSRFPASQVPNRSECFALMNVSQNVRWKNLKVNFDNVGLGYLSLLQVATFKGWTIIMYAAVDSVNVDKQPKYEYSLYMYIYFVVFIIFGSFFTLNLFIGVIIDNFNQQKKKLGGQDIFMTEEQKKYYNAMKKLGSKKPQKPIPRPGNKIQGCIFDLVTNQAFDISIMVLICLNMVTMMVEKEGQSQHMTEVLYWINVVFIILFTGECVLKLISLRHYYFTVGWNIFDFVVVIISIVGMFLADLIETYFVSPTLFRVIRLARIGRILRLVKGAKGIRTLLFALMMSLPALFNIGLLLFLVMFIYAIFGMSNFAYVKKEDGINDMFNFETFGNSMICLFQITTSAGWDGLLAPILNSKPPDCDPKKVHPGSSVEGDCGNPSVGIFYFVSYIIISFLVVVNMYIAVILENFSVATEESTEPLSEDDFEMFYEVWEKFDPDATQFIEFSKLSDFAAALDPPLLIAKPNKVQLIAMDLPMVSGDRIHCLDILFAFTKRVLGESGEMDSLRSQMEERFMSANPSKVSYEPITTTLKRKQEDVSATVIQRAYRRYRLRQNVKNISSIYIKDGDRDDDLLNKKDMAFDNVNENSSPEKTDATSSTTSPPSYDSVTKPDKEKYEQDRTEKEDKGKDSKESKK
row,Structure (SMILES),IC50 [µM]
1,"Cn1nccc1-c1nc(-c2ccnc(F)c2)ccc1Oc1ccc(S(=O)(=O)Nc2nccs2)cc1C#N [Example 107, 3-cyano-4-((2′-fluoro-6-(1-methyl-1H-pyrazol-5-yl)-[2,4′-bipyridin]-5-yl)oxy)-N-(thiazol-2-yl)benzenesulfonamide]",> 0.1
2,"Cn1nccc1-c1nc(-c2ccc(F)nc2)ccc1Oc1ccc(S(=O)(=O)Nc2nccs2)cc1C#N [Example 115, 3-cyano-4-((6′-fluoro-6-(1-methyl-1H-pyrazol-5-yl)-[2,3′-bipyridin]-5-yl)oxy)-N-(thiazol-2-yl)benzenesulfonamide]",> 0.1
3,"Cn1nccc1-c1nc(-c2cccnc2F)ccc1Oc1ccc(S(=O)(=O)Nc2nccs2)cc1C#N [Example 116, 3-cyano-4-((2′-fluoro-6-(1-methyl-1H-pyrazol-5-yl)-[2,3′-bipyridin]-5-yl)oxy)-N-(thiazol-2-yl)benzenesulfonamide]",> 0.1
4,"Cn1nccc1-c1nc(-c2cccc(F)c2)ccc1Oc1ccc(S(=O)(=O)Nc2nccs2)cc1C#N [Example 117, 3-cyano-4-((6-(3-fluorophenyl)-2-(1-methyl-1H-pyrazol-5-yl)pyridin-3-yl)oxy)-N-(thiazol-2-yl)benzenesulfonamide]",0.051 to 0.1
5,"Cn1nccc1-c1nc(-c2ccccc2F)ccc1Oc1ccc(S(=O)(=O)Nc2nccs2)cc1C#N [Example 118, 3-cyano-4-((6-(2-fluorophenyl)-2-(1-methyl-1H-pyrazol-5-yl)pyridin-3-yl)oxy)-N-(thiazol-2-yl)benzenesulfonamide]",> 0.1
6,"Cn1nccc1-c1nc(-c2ccsc2)ccc1Oc1ccc(S(=O)(=O)Nc2nccs2)cc1C#N [Example 119, 3-cyano-4-((2-(1-methyl-1H-pyrazol-5-yl)-6-(thiophen-3-yl)pyridin-3-yl)oxy)-N-(thiazol-2-yl)benzenesulfonamide]",0.051 to 0.1
7,"Cn1cc(-c2ccc(Oc3ccc(S(=O)(=O)Nc4nccs4)cc3C#N)c(-c3ccnn3C)n2)cn1 [Example 120, 3-cyano-4-((6-(1-methyl-1H-pyrazol-4-yl)-2-(1-methyl-1H-pyrazol-5-yl)pyridin-3-yl)oxy)-N-(thiazol-2-yl)benzenesulfonamide]",> 0.1
8,"Cn1nccc1-c1nc(-c2cnoc2)ccc1Oc1ccc(S(=O)(=O)Nc2nccs2)cc1C#N [Example 121, 3-cyano-4-((6-(isoxazol-4-yl)-2-(1-methyl-1H-pyrazol-5-yl)pyridin-3-yl)oxy)-N-(thiazol-2-yl)benzenesulfonamide]",> 0.1
9,"Cn1cc(-c2nc(-c3cccnc3F)ccc2Oc2ccc(S(=O)(=O)Nc3nccs3)cc2C#N)cn1 [Example 123, 3-cyano-4-((2′-fluoro-6-(1-methyl-1H-pyrazol-4-yl)-[2,3′-bipyridin]-5-yl)oxy)-N-(thiazol-2-yl)benzenesulfonamide]",> 0.1
10,"Cn1cc(-c2nc(-c3ccc(F)nc3)ccc2Oc2ccc(S(=O)(=O)Nc3nccs3)cc2C#N)cn1 [Example 124, 3-cyano-4-((6′-fluoro-6-(1-methyl-1H-pyrazol-4-yl)-[2,3′-bipyridin]-5-yl)oxy)-N-(thiazol-2-yl)benzenesulfonamide]",> 0.1
11,"Cn1cc(-c2nc(-c3ccnc(F)c3)ccc2Oc2ccc(S(=O)(=O)Nc3nccs3)cc2C#N)cn1 [Example 125, 3-cyano-4-((2′-fluoro-6-(1-methyl-1H-pyrazol-4-yl)-[2,4′-bipyridin]-5-yl)oxy)-N-(thiazol-2-yl)benzenesulfonamide]",> 0.1
12,"Cn1cc(-c2nc(-c3ccc(F)nc3F)ccc2Oc2ccc(S(=O)(=O)Nc3nccs3)cc2C#N)cn1 [Example 126, 3-cyano-4-((2′,6′-difluoro-6-(1-methyl-1H-pyrazol-4-yl)-[2,3′-bipyridin]-5-yl)oxy)-N-(thiazol-2-yl)benzenesulfonamide]",> 0.1
13,"Cn1nccc1-c1nc(-c2ccc(F)nc2F)ccc1Oc1ccc(S(=O)(=O)Nc2nccs2)cc1C#N [Example 128, 3-cyano-4-((2′,6′-difluoro-6-(1-methyl-1H-pyrazol-5-yl)-[2,3′-bipyridin]-5-yl)oxy)-N-(thiazol-2-yl)benzenesulfonamide]",> 0.1
14,"O=S(=O)(Nc1cscn1)c1cc(Cl)c(Oc2ccc(-c3ccc(F)nc3F)nc2-c2ccoc2)cc1F [Example 129, 5-chloro-4-((2′,6′-difluoro-6-(furan-3-yl)-[2,3′-bipyridin]-5-yl)oxy)-2-fluoro-N-(thiazol-4-yl)benzenesulfonamide]",> 0.1
15,"O=S(=O)(Nc1cscn1)c1cc(Cl)c(Oc2ccc(-c3ccc(F)nc3)nc2-c2ccoc2)cc1F [Example 130, 5-chloro-2-fluoro-4-((6′-fluoro-6-(furan-3-yl)-[2,3′-bipyridin]-5-yl)oxy)-N-(thiazol-4-yl)benzenesulfonamide]",> 0.1

# The remaining lines, values ahead:
row,IC50 [µM],Structure (SMILES)
1,0.051 to 0.1,"N#Cc1cc(S(=O)(=O)Nc2nccs2)ccc1Oc1ccc(-c2ccccc2F)nc1-c1ccoc1 [Example 108, 3-cyano-4-((6-(2-fluorophenyl)-2-(furan-3-yl)pyridin-3-yl)oxy)-N-(thiazol-2-yl)benzenesulfonamide]"
2,< 0.05,"N#Cc1cc(S(=O)(=O)Nc2nccs2)ccc1Oc1ccc(-c2ccc(F)cc2)nc1-c1ccoc1 [Example 109, 3-cyano-4-((6-(4-fluorophenyl)-2-(furan-3-yl)pyridin-3-yl)oxy)-N-(thiazol-2-yl)benzenesulfonamide]"
3,< 0.05,"N#Cc1cc(S(=O)(=O)Nc2nccs2)ccc1Oc1ccc(-c2cccc(F)c2)nc1-c1ccoc1 [Example 110, 3-cyano-4-((6-(3-fluorophenyl)-2-(furan-3-yl)pyridin-3-yl)oxy)-N-(thiazol-2-yl)benzenesulfonamide]"
4,> 0.1,"N#Cc1cc(S(=O)(=O)Nc2nccs2)ccc1Oc1ccc(-c2ccncc2)nc1-c1ccoc1 [Example 111, 3-cyano-4-((6-(furan-3-yl)-[2,4′-bipyridin]-5-yl)oxy)-N-(thiazol-2-yl)benzenesulfonamide]"
5,0.051 to 0.1,"N#Cc1cc(S(=O)(=O)Nc2nccs2)ccc1Oc1ccc(-c2ccnc(F)c2)nc1-c1ccoc1 [Example 112, 3-cyano-4-((2′-fluoro-6-(furan-3-yl)-[2,4′-bipyridin]-5-yl)oxy)-N-(thiazol-2-yl)benzenesulfonamide]"
6,> 0.1,"N#Cc1cc(S(=O)(=O)Nc2nccs2)ccc1Oc1ccc(-c2ccsc2)nc1-c1ccoc1 [Example 113, 3-cyano-4-((2-(furan-3-yl)-6-(thiophen-3-yl)pyridin-3-yl)oxy)-N-(thiazol-2-yl)benzenesulfonamide]"
7,> 0.1,"N#Cc1cc(S(=O)(=O)Nc2nccs2)ccc1Oc1ccc(-c2ccoc2)nc1-c1ccoc1 [Example 114, 3-cyano-4-((2,6-di(furan-3-yl)pyridin-3-yl)oxy)-N-(thiazol-2-yl)benzenesulfonamide]"
8,0.051 to 0.1,"Cn1cc(-c2nc(-c3cccc(F)c3)ccc2Oc2ccc(S(=O)(=O)Nc3nccs3)cc2C#N)cn1 [Example 122, 3-cyano-4-((6-(3-fluorophenyl)-2-(1-methyl-1H-pyrazol-4-yl)pyridin-3-yl)oxy)-N-(thiazol-2-yl)benzenesulfonamide]"
9,0.051 to 0.1,"N#Cc1cc(S(=O)(=O)Nc2nccs2)ccc1Oc1ccc(-c2ccc(F)nc2F)nc1-c1ccoc1 [Example 127, 3-cyano-4-((2′,6′-difluoro-6-(furan-3-yl)-[2,3′-bipyridin]-5-yl)oxy)-N-(thiazol-2-yl)benzenesulfonamide]"
